Each block holds one molecule with its values, some of them ahead of it.
Tests used:
[1] = no reference given; cited from earlier work
[2] = test system: OCT1; settings: cited from earlier work
[3] = Concentration-dependent uptake into empty vector-transfected HEK293 cells; type: cell-based, human; settings: human, empty vector (pcDNA5/FRT)-transfected HEK293 cells, pH 7.4; empty vector-transfected HEK cells; read-out: intrinsic clearance
Description: (§1) The transport experiments were performed using HEK293 cells that overexpress human OCT1*1 (wild-type), mutant human OCT1 D474N, variant human OCT1*2 (M420del) and OCT1*3 (R61C), wild-type human OCT2, and OCT3 after stable transfection. The wild-type cell lines of OCT1 and OCT2, as well as the variant cell lines OCT1*2 and *3, were generated using the Flp-In system (Thermo Fisher Scientific, Darmstadt, Germany) as described in previous publications. The cell line overexpressing OCT3 was a kind gift from Dr. Koepsell and Dr. Gorbulev (University of Würzburg, Germany). Cells transfected with the empty pcDNA5/FRT vector were used for the transport experiments as a control cell line. All cells were cultured approximately up to passage 30.
(§2) Forty-eight hours before the transport experiments, 600,000 cells were plated on 12-well plates pre-coated with poly-D-lysine and incubated at 37 °C with 5% CO2. The prepared 12-well plate with cells was positioned on a heating plate pre-warmed to 37 °C. After removing the medium, the cells were washed with 37 °C HBSS+ (10 mM HEPES in Hank’s balanced salt solution, pH 7.4). Then, one pre-defined concentration of a substrate was added to each well. The incubation period was stopped by adding 2 mL of 4 °C HBSS+ and removing the cells from the heating plate. The cells were washed twice with 4 °C HBSS+. For cell lysis, the cells were incubated for 15 min with 500 µL of 80% acetonitrile (LGC Standards, Wesel, Germany), which contained a respective internal standard (Table 1).
(§3) For time-dependent transport, the cells were incubated with 1 µM of the substance for 15 to 240 s to determine the linear uptake range ≥ 15 s. For concentration-dependent transport, the cells were incubated with defined substrate concentrations (0.1, 1, 10, 30, 100, 300, 600, 1000 µM) for the respective pre-defined incubation times. […]; 100 µM) and pre-defined incubation times. The uptake by a transporter was normalised to the uptake by empty vector-transfected cells. […] The results of transport experiments were normalized to the total protein concentration per well. Total protein quantification was performed using a bicinchoninic acid assay with bovine serum albumin as standard.
(§4) The ratios of cellular uptake were calculated by dividing the total uptake of transporter-overexpressing cells by the total uptake into empty vector transfected cells. The concentration-dependent cellular net uptake was used for analysis of transport kinetics by subtracting for each substrate concentration the uptake of empty vector-transfected cells from the uptake of transporter-overexpressing cells. The transport kinetic parameters Vmax and KM were determined with non-linear regression by using the Michaelis–Menten equation for net uptake data and by using the Michaelis–Menten equation extended with a linear term for total uptake data (GraphPad Prism 5.01, GraphPad software, LA Jolla, CA, USA). The intrinsic clearance Clint was expressed with the ratio of Vmax and KM.

[4] = test system: empty vector-transfected HEK cells; experiment: as above; type: cell-based, human; settings: uptake into empty vector-transfected cells
Description: as §1, §2, §3, §4

[5] = target: OCT1 (wild-type, OCT1*1) (Homo sapiens, UniProt O15245); experiment: Concentration-dependent uptake (transport kinetics) in HEK293 cells overexpressing OCT1 wild-type; settings: human, HEK293 cells stably overexpressing human OCT1*1 (wild-type), pH 7.4, KM (±SEM), net uptake (OCT1 minus empty vector), HEK293, 0.1-1000 µM substrate, Michaelis–Menten

Compound: COc1cc(Cc2cnc(N)nc2N)cc(OC)c1OC [Trimethoprim, trimethoprim]
- fraction eliminated via the kidneys [1]: about 75%

Compound: N=C(N)c1ccc(OCCCCCOc2ccc(C(=N)N)cc2)cc1 [Pentamidine, pentamidine]
- Km [2]: 36.4 µM
- intrinsic clearance [2]: 4.3 µL/mg protein/min

- microsomal CLint [3]: 54.4 µL/min/mg
Compound: N[C@@H](Cc1ccc(O)c(O)c1)C(=O)O [Levodopa, levodopa]
- Km [4]: 380 µM
- Vmax [4]: 20,681 pmol/mg protein/min

- Km [5]: 719 µM
Compound: CCCCC[C@H](O)/C=C/[C@@H]1[C@@H](C/C=C\CCCC(=O)O)[C@@H](O)C[C@H]1O [Prostaglandin F2α, prostaglandin F2α]

From paper PMC9687798, “Atypical Substrates of the Organic Cation Transporter 1” (Biomolecules, 2022)
